Results taken from patent publication US11149030B2, “Plants having increased tolerance to herbicides” (BASF AGRO B.V., priority 2016, dated 2021).

System: transgenic T2 Arabidopsis plants
Experiment: Greenhouse spray of transgenic T2 Arabidopsis plants, herbicide injury 0 to 100% phytotox rating (Table A)
Assay type: in vivo
Settings: 14 days after treatment
Method: Additionally, transgenic T2 Arabidopsis plants are tested for improved tolerance to herbicides in greenhouse studies with the following herbicides: methyl 2-[2-chloro-5-[3-chloro-5-(trifluoromethyl)-2-pyridyl]-4-fluoro-phenoxy]-2-methoxy-acetate, and photosynthesis inhibitor diuron as negative control.
Table A: Transgenic T2 Arabidopsis plants, four weeks old, were sprayed in the greenhouse with the indicated amount of compound+1% (v/v) MSO. Herbicide injury was evaluated 14 days after treatment with a 0 to 100% phytotox rating scale where 0 is no injury relative to an unsprayed wild type check and 100% is completely dead.

COC(=O)C(OC)Oc1cc(-c2ncc(C(F)(F)F)cc2Cl)c(F)cc1Cl (stereo not shown) [methyl 2-[2-chloro-5-[3-chloro-5-(trifluoromethyl)-2-pyridyl]-4-fluoro-phenoxy]-2-methoxy-acetate]
Herbicide injury, 0 to 100% phytotox rating (construct AMATU_PPO2 L397Q_F420M, 50 g ai/ha + 1% (v/v) MSO): 45%
Herbicide injury, 0 to 100% phytotox rating (construct AMATU_PPO2 L397Q_F420M, 100 g ai/ha + 1% (v/v) MSO): 61%
Herbicide injury, 0 to 100% phytotox rating (construct AMATU_PPO2 L397Q_F420M, 200 g ai/ha + 1% (v/v) MSO): 73%
Herbicide injury, 0 to 100% phytotox rating (construct AMATU_PPO2 L397Q_F420V, 50 g ai/ha + 1% (v/v) MSO): 69%
Herbicide injury, 0 to 100% phytotox rating (construct AMATU_PPO2 L397Q_F420V, 100 g ai/ha + 1% (v/v) MSO): 66%
Herbicide injury, 0 to 100% phytotox rating (construct AMATU_PPO2 L397Q_F420V, 200 g ai/ha + 1% (v/v) MSO): 83%
Herbicide injury, 0 to 100% phytotox rating (construct AMATU_PPO2 R128A_F420V, 50 g ai/ha + 1% (v/v) MSO): 51%
Herbicide injury, 0 to 100% phytotox rating (construct AMATU_PPO2 R128A_F420V, 100 g ai/ha + 1% (v/v) MSO): 69%
Herbicide injury, 0 to 100% phytotox rating (construct AMATU_PPO2 R128A_F420V, 150 g ai/ha + 1% (v/v) MSO): 73%
Herbicide injury, 0 to 100% phytotox rating (construct AMATU_PPO2 R128I_F420V, 50 g ai/ha + 1% (v/v) MSO): 64%
Herbicide injury, 0 to 100% phytotox rating (construct AMATU_PPO2 R128I_F420V, 100 g ai/ha + 1% (v/v) MSO): 66%
Herbicide injury, 0 to 100% phytotox rating (construct AMATU_PPO2 R128I_F420V, 200 g ai/ha + 1% (v/v) MSO): 80%
Herbicide injury, 0 to 100% phytotox rating (construct AMATU_PPO2 R128L_F420L, 50 g ai/ha + 1% (v/v) MSO): 18%
Herbicide injury, 0 to 100% phytotox rating (construct AMATU_PPO2 R128L_F420L, 100 g ai/ha + 1% (v/v) MSO): 30%
Herbicide injury, 0 to 100% phytotox rating (construct AMATU_PPO2 R128L_F420L, 200 g ai/ha + 1% (v/v) MSO): 56%
Herbicide injury, 0 to 100% phytotox rating (construct AMATU_PPO2 R128M_F420I, 50 g ai/ha + 1% (v/v) MSO): 63%
Herbicide injury, 0 to 100% phytotox rating (construct AMATU_PPO2 R128M_F420I, 100 g ai/ha + 1% (v/v) MSO): 83%
Herbicide injury, 0 to 100% phytotox rating (construct AMATU_PPO2 R128M_F420I, 200 g ai/ha + 1% (v/v) MSO): 91%
Herbicide injury, 0 to 100% phytotox rating (construct AMATU_PPO2 R128M_F420L, 50 g ai/ha + 1% (v/v) MSO): 30%
Herbicide injury, 0 to 100% phytotox rating (construct AMATU_PPO2 R128M_F420L, 100 g ai/ha + 1% (v/v) MSO): 60%
Herbicide injury, 0 to 100% phytotox rating (construct AMATU_PPO2 R128M_F420L, 200 g ai/ha + 1% (v/v) MSO): 73%
Herbicide injury, 0 to 100% phytotox rating (construct AMATU_PPO2 R128M_F420M, 50 g ai/ha + 1% (v/v) MSO): 100%
Herbicide injury, 0 to 100% phytotox rating (construct AMATU_PPO2 R128M_F420M, 100 g ai/ha + 1% (v/v) MSO): 85%
Herbicide injury, 0 to 100% phytotox rating (construct AMATU_PPO2 R128M_F420M, 200 g ai/ha + 1% (v/v) MSO): 100%
Herbicide injury, 0 to 100% phytotox rating (construct AMATU_PPO2 R128M_F420V, 50 g ai/ha + 1% (v/v) MSO): 64%
Herbicide injury, 0 to 100% phytotox rating (construct AMATU_PPO2 R128M_F420V, 100 g ai/ha + 1% (v/v) MSO): 75%
Herbicide injury, 0 to 100% phytotox rating (construct AMATU_PPO2 R128M_F420V, 200 g ai/ha + 1% (v/v) MSO): 93%
Herbicide injury, 0 to 100% phytotox rating (construct Arabidopsis PPO1 S305L_Y426M, 50 g ai/ha + 1% (v/v) MSO): 49%
Herbicide injury, 0 to 100% phytotox rating (construct Arabidopsis PPO1 S305L_Y426M, 100 g ai/ha + 1% (v/v) MSO): 100%
Herbicide injury, 0 to 100% phytotox rating (construct Arabidopsis PPO1 S305L_Y426M, 150 g ai/ha + 1% (v/v) MSO): 100%
Herbicide injury, 0 to 100% phytotox rating (construct CHLSP_PPO_wt_tpFNR (CHLSP_PPO SEQ ID NO: 256), 50 g ai/ha + 1% (v/v) MSO): 91%
Herbicide injury, 0 to 100% phytotox rating (construct CHLSP_PPO_wt_tpFNR (CHLSP_PPO SEQ ID NO: 256), 100 g ai/ha + 1% (v/v) MSO): 97%
Herbicide injury, 0 to 100% phytotox rating (construct CHLSP_PPO_wt_tpFNR (CHLSP_PPO SEQ ID NO: 256), 200 g ai/ha + 1% (v/v) MSO): 95%
Herbicide injury, 0 to 100% phytotox rating (construct OPITE_PPO_wt_tpFNR (OPITE_PPO SEQ ID NO: 249), 50 g ai/ha + 1% (v/v) MSO): 100%
Herbicide injury, 0 to 100% phytotox rating (construct OPITE_PPO_wt_tpFNR (OPITE_PPO SEQ ID NO: 249), 100 g ai/ha + 1% (v/v) MSO): 100%
Herbicide injury, 0 to 100% phytotox rating (construct OPITE_PPO_wt_tpFNR (OPITE_PPO SEQ ID NO: 249), 200 g ai/ha + 1% (v/v) MSO): 100%
Herbicide injury, 0 to 100% phytotox rating (construct hemG_tp_FNR (SEQ ID NO: 245), 50 g ai/ha + 1% (v/v) MSO): 96%
Herbicide injury, 0 to 100% phytotox rating (construct hemG_tp_FNR (SEQ ID NO: 245), 100 g ai/ha + 1% (v/v) MSO): 100%
Herbicide injury, 0 to 100% phytotox rating (construct hemG_tp_FNR (SEQ ID NO: 245), 200 g ai/ha + 1% (v/v) MSO): 99%
Herbicide injury, 0 to 100% phytotox rating (construct hemG_tp_long AMATU (SEQ ID NO: 246), 50 g ai/ha + 1% (v/v) MSO): 68%
Herbicide injury, 0 to 100% phytotox rating (construct hemG_tp_long AMATU (SEQ ID NO: 246), 100 g ai/ha + 1% (v/v) MSO): 75%
Herbicide injury, 0 to 100% phytotox rating (construct hemG_tp_long AMATU (SEQ ID NO: 246), 200 g ai/ha + 1% (v/v) MSO): 79%
Herbicide injury, 0 to 100% phytotox rating (non transformed Arabidopsis, 50 g ai/ha + 1% (v/v) MSO): 100%
Herbicide injury, 0 to 100% phytotox rating (non transformed Arabidopsis, 100 g ai/ha + 1% (v/v) MSO): 100%
Herbicide injury, 0 to 100% phytotox rating (non transformed Arabidopsis, 150 g ai/ha + 1% (v/v) MSO): 100%
Herbicide injury, 0 to 100% phytotox rating (non transformed Arabidopsis, 200 g ai/ha + 1% (v/v) MSO): 100%
